# Reference: patent US5840716A, “Phosphonate nucleotide compounds” (priority 1996, dated 1998)
# Where two headings read alike, the source gives them in different places.
# Assays:
# [1] = test system: Hepatitis B virus (HBV); assay: HBV growth inhibition: inhibition of cytoplasmic HBV-DNA synthesis in HB611 cells (Southern blotting); type: cell-based
# Procedure: Inhibitory activity against the growth of Hepatitis B virus (HBV)
# (§1) HBV growth inhibitory activities of the compounds of the present invention were measured by a conventional method (K. Ueda, et al., Virology, 169, pp.213-216, 1989). HB611 cells (2×10^4, recombinant human hepatocellular carcinoma cells producing HBV) were cultured in Dulbecco ME medium containing 10% fetal bovine serum, streptomycin (100 μg/ml), penicillin (100 IU/ml), and Geneteicin (trade name, the antibiotic manufactured by Life Technologies, Co., Ltd., 0.2 mg/ml) at 37° C. The medium was changed with fresh medium on the second day and fifth day of the culture, and then the medium was changed with a medium containing a test compound at a final concentration of […] after 8, 11, and 14 days of the culture. Total cellular DNAs were collected on the 17th day of the culture. Amounts of the HBV-DNAs in the cells were measured by the Southern blotting method, and concentrations achieving 50% inhibition of cytoplasmic HBV-DNA synthesis were determined. concentrations of compounds required for 50% extinction of HB611 cells were also determined.
# [2] = Cytotoxicity: 50% extinction of HB611 cells; type: cell-based; conditions: human, read-out: 50% cytotoxic concentration against HB611 cells
# Procedure: as §1
# [3] = test system: Hepatitis B virus (HBV); assay: HBV growth inhibitory activity of mouse serum after oral administration (HB611 cells); type: cell-based; conditions: serum 5% (V/V) in HB611 cell medium
# Procedure: HBV growth inhibitory activity of mouse serum after oral administration
# Groups of mice each consisting of three mice were administered orally with a test compound at a single dose of 1 g/kg or 0.3 g/kg. Blood was collected 30 minutes after the administration, and serum was prepared. HB611 cells (2×10^4, recombinant human hepatocellular carcinoma cells producing HBV) were cultured in Dulbecco ME medium containing 10% fetal bovine serum, streptomycin (100 μg/ml), penicillin (100 IU/ml), and Geneteicin (trade name, the antibiotic manufactured by Life Technologies, Co., Ltd., 0.2 mg/ml) at 37° C. The medium was changed with fresh medium on the second day and fifth day of the culture, and then the medium was changed with a medium containing a test serum at a final concentration of 5% (V/V) after 8, 11, and 14 days of the culture. Total cellular DNAs were collected on the 17th day of the culture. Amounts of the HBV-DNAs in the cells were measured by the Southern blotting method, and rates of inhibition of cytoplasmic HBV-DNA synthesis were determined. As a reference, a similar test was carried out using PMEA.
# [4] = test system: herpes simplex type 2 virus (HSV-2); conditions: literature; cited from earlier work
# [5] = test system: herpes simplex type 1 virus (HSV-1); conditions: literature; cited from earlier work
# [6] = test system: human immunodeficiency virus (HIV); conditions: literature; cited from earlier work
# [7] = test system: human hepatitis B virus (HBV); conditions: literature; cited from earlier work
# [8] = HB611 cells, compound in medium after 8, 11 and 14 days, DNA collected on 17th day, read-out: 50% inhibitory concentration against HBV-DNA synthesis
# [9] = mouse serum 30 minutes after single oral dose of 0.3 g/kg
structure (smiles),measurement,setting,value
"COc1cccc(Sc2nc(N)nc3c2ncn3CCOCP(=O)(OCC(F)(F)F)OCC(F)(F)F)c1 [Compound No. 3, 2-amino-9-[2-[bis(2,2,2-trifluoroethyl)-phosphonylmethoxy]ethyl]-6-m-methoxyphenylthiopurine]",IC50,[1]; [8],0.04 µM
same,CC50,[2],> 1000 µM
"Nc1ncnc2c1ncn2CCOCP(=O)(O)O [PMEA, 9-(2-phosphonylmethoxy) ethyladenine]",Inhibitory rate against HBV-DNA synthesis,[3]; mouse serum 30 minutes after single oral dose of 1.0 g/kg,35.5%
same,reported as being effective against HSV-2,[4],effective
same,reported as being effective against HSV-1,[5],effective
same,reported as being effective against HIV,[6],effective
same,reported as being effective against HBV,[7],effective
"COc1ccc(Sc2nc(N)nc3c2ncn3CCOCP(=O)(OCC(F)(F)F)OCC(F)(F)F)cc1 [Compound No. 4, 2-amino-9-[2-[bis(2,2,2-trifluoroethyl)-phosphonylmethoxy]ethyl]-6-p-methoxyphenylthiopurine]",IC50,[1]; [8],0.05 µM
same,CC50,[2],> 1000 µM
same,Inhibitory rate against HBV-DNA synthesis,[3]; [9],95.2%
"Nc1nc(N)c2ncn(CCOCP(=O)(O)O)c2n1 [PMDAP, 9-(2-phosphonylmethoxy)ethyl-2,6-diaminopurine]",reported as being effective against HSV-2,[4],effective
same,reported as being effective against HSV-1,[5],effective
same,reported as being effective against HIV,[6],effective
same,reported as being effective against HBV,[7],effective
"COc1ccccc1Sc1nc(N)nc2c1ncn2CCOCP(=O)(OCC(F)(F)F)OCC(F)(F)F [Compound No. 2, 2-amino-9-[2-[bis(2,2,2-trifluoroethyl)-phosphonylmethoxy]ethyl]-6-o-methoxyphenylthiopurine]",IC50,[1]; [8],0.08 µM
same,CC50,[2],> 1000 µM
"Nc1nc(Sc2ccccc2)c2ncn(CCOCP(=O)(OCC(F)(F)F)OCC(F)(F)F)c2n1 [Compound No. 1, 2-amino-9-[2-[bis(2,2,2-trifluoroethyl)-phosphonylmethoxy]ethyl]-6-phenylthiopurine]",IC50,[1]; [8],0.01 µM
same,CC50,[2],> 1000 µM
same,Inhibitory rate against HBV-DNA synthesis,[3]; [9],60.7%
"CC(C)(C)C(=O)OCOP(=O)(COCCn1cnc2c(N)ncnc21)OCOC(=O)C(C)(C)C [Reference 1, dipivaloyloxymethyl ester of PMEA]",IC50,"[1]; HB611, read-out: 50% inhibitory concentration against HBV-DNA synthesis",18.8 µM
same,CC50,[2],11 µM
"Cc1ccc(Sc2nc(N)nc3c2ncn3CCOCP(=O)(OCC(F)(F)F)OCC(F)(F)F)cc1 [Reference 2, 9-[2-[bis(2,2,2-trifluoroethyl)phosphonylmethoxy]ethyl]-2-amino-6-p-toluylthiopurine]",IC50,[1]; [8],0.06 µM
same,CC50,[2],108 µM
